Experiment: Conformational equilibrium of cyclic and open chain forms in aqueous solution
Format: physicochemical
Conditions: at equilibrium at pH 7.0
Text: The open, active, inhibitory chain species is favored at low pH while the cyclized structure is favored at neutral pH. The reaction is fully reversible: the open chain becomes predominant at low pH. The open chain to cyclic species reaction involves a trans to cis isomerization of the proline and the formation of a new N—B bond. […] Cyclization liberates one equivalent of H+ thereby explaining the requirement for base in the cyclization reaction and acid in the opening reaction. […] G. Gutheil and W. W. Bachovchin, Separation of L-Pro-DL-boroPro into Its Component Diastereomers and Kinetic Analysis of Their Inhibition of Dipeptidyl Peptidase IV. A New Method for the Analysis of Slow, Tight-Binding Inhibition, Biochemistry 32, 8723-8731 (1993)).

Row | SMILES | fraction existing as the open chain, inhibitory species
1 | O=C(C1CCCN1)N1CCCC1B(O)O (centres unmarked) [Pro-boroPro] | less than 1%
2 | CC(C)C(N)C(=O)N1CCCC1B(O)O (centres unmarked) [Val-boroPro] | less than 0.1%

— US7265118B2, “Regulation of substrate activity” (Point Therapeutics, Inc., priority 1998, dated 2007)
